According to patent publication US6472348B1, “Pyridone derivatives and herbicides” (Kumiai Chemical Industry Co., Ltd., priority 1996, dated 2002):

How the values were obtained:
[1] = tested on: Diaitaria ciliaris (Di); assay: Test Example 4: crop plant selectivity by upland field soil treatment (cotton), herbicidal effects; type: in vivo; settings: evaluated 21st day after application
Procedure: (§1) (Test on Crop Plant Selectivity by Upland Field Soil Treatment)
In a plastic pot (surface area: 600 cm^2) filled with sand, cotton (Go), Diaitaria ciliaris (Di), green foxtail (Se), pale smartweed (Po), slender amaranth (Am), common lambsquarters (Ch) and China jute (Ab) were sown and covered with soil. […] The plants were then cultured in a green house, and the evaluation of the herbicidal effects and phytotoxicity was conducted on the 21st day after the application in accordance with the standards as identified in Table 47. Symbol—represents “not tested”.

[2] = tested on: common lambsquarters (Ch); assay: Test Example 2: herbicidal effects by upland field soil treatment; type: in vivo; settings: 100 g of the active ingredient per 10 ares, evaluated on the 21st day after application;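 note: grade of growth control; 5 = at least 90%; 4 = 70 to 90%; 3 = 50 to 70%; 2 = 30 to 50%; 1 = 10 to 30%; 0 = under 10%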
Description: (§2) (Test on Herbicidal Effects by Upland Field Soil Treatment)

[3] = tested on: slender amaranth (Am); assay: as above; type: in vivo; settings: 100 g of the active ingredient per 10 ares, evaluated on the 21st day after application
Description: as §2

[4] = tested on: barnyardgrass (Ec); assay: as above; type: in vivo; settings: 100 g of the active ingredient per 10 ares, evaluated on the 21st day after application
Description: as §2

[5] = tested on: Digitaria ciliaris (Di); assay: as above; type: in vivo; settings: 100 g of the active ingredient per 10 ares, evaluated on the 21st day after application;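 note: grade of growth control; 5 = at least 90%; 4 = 70 to 90%; 3 = 50 to 70%; 2 = 30 to 50%; 1 = 10 to 30%; 0 = under 10%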
Description: as §2

[6] = tested on: pale smartweed (Po); assay: as above; type: in vivo; settings: 100 g of the active ingredient per 10 ares, evaluated on the 21st day after application
Description: as §2

[7] = tested on: rice flatsedge (Ci); assay: as above; type: in vivo; settings: 100 g of the active ingredient per 10 ares, evaluated on the 21st day after application
Description: as §2

[8] = tested on: Diaitaria ciliaris (Di); assay: Test Example 5: crop plant selectivity by upland field soil treatment (wheat), herbicidal effects; type: in vivo; settings: 21st day after application
Procedure: as §1
In a plastic pot (surface area: 600 cm^2) filled with sand, wheat (Tr), Diaitaria ciliaris (Di), green foxtail (Se), pale smartweed (Po), slender amaranth (Am), common lambsquarters (Ch) and China jute (Ab) were sown and covered with soil. […] The plants were then cultured in a green house, and the evaluation of the herbicidal effects and phytotoxicity was conducted on the 21st day after the application in accordance with the standards as identified in Table 47. Symbol—represents “not tested”.

[9] = tested on: common lambsquarters (Ch); assay: Test Example 3: herbicidal effects by upland field foliage treatment; type: in vivo; design: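 grade of growth control; 5 = at least 90%; 4 = 70 to 90%; 3 = 50 to 70%; 2 = 30 to 50%; 1 = 10 to 30%; 0 = under 10%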; settings: 100 g active ingredient per 10 ares, evaluated 14th day after treatment
How it was run: (§3)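 Two-week-old greenhouse seedlings, raised in sand-filled pots (120 cm^2) with seed covered by soil, receive a foliar application. Effects are then evaluated by standard grades 14 days later, plants remaining in the greenhouse meanwhile.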

[10] = tested on: slender amaranth (Am); assay: as above; type: in vivo; design: scale not given here; settings: 100 g active ingredient per 10 ares, evaluated 14th day after treatment
How it was run: as §3

[11] = tested on: barnyardgrass (Ec); assay: as above; type: in vivo; design: scale not given here; settings: 100 g active ingredient per 10 ares, evaluated 14th day after treatment
How it was run: as §3

[12] = tested on: Diaitaria ciliaris (Di); assay: as above; type: in vivo; design: scale not given here; settings: 100 g active ingredient per 10 ares, evaluated 14th day after treatment
How it was run: as §3

[13] = tested on: pale smartweed (Po); assay: as above; type: in vivo; design: scale not given here; settings: 100 g active ingredient per 10 ares, evaluated 14th day after treatment
How it was run: as §3

[14] = tested on: rice flatsedge (Ci); assay: as above; type: in vivo; design: scale not given here; settings: 100 g active ingredient per 10 ares, evaluated 14th day after treatment
How it was run: as §3

[15] = tested on: wheat (Tr); assay: Test Example 5: crop plant selectivity by upland field soil treatment (wheat), phytotoxicity; type: in vivo; design: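 grade of crop injury; 5 = at least 90%; 4 = 70 to 90%; 3 = 50 to 70%; 2 = 30 to 50%; 1 = 10 to 30%; 0 = under 10%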; settings: 21st day after application
How it was run: (§4)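 Pre-emergence soil treatment, sand-filled pots, seeds covered with soil; greenhouse culture; visual scoring of weed control and wheat injury at day 21 post-application.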

[16] = tested on: common lambsquarters (Ch); assay: Test Example 4: crop plant selectivity by upland field soil treatment (cotton), herbicidal effects; type: in vivo; design: scale not given here; settings: evaluated 21st day after application
How it was run: (§5)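 Cotton and weeds (incl. China jute, pale smartweed, slender amaranth) sown in sand-filled pots and covered with soil, then soil-treated. Grown in greenhouse; herbicidal effect and cotton phytotoxicity scored on day 21 after application against a rating standard.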

[17] = tested on: slender amaranth (Am); assay: as above; type: in vivo; design: scale not given here; settings: evaluated 21st day after application
How it was run: as §5

[18] = tested on: China jute (Ab); assay: as above; type: in vivo; design: scale not given here; settings: evaluated 21st day after application
How it was run: as §5

[19] = tested on: green foxtail (Se); assay: as above; type: in vivo; design: scale not given here; settings: evaluated 21st day after application
How it was run: as §5

[20] = tested on: pale smartweed (Po); assay: as above; type: in vivo; design: scale not given here; settings: evaluated 21st day after application
How it was run: as §5

[21] = tested on: common lambsquarters (Ch); assay: Test Example 5: crop plant selectivity by upland field soil treatment (wheat), herbicidal effects; type: in vivo; design: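 grade of growth control; 5 = at least 90%; 4 = 70 to 90%; 3 = 50 to 70%; 2 = 30 to 50%; 1 = 10 to 30%; 0 = under 10%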; settings: 21st day after application
How it was run: as §4

[22] = tested on: slender amaranth (Am); assay: as above; type: in vivo; design: scale not given here; settings: 21st day after application
How it was run: as §4

[23] = tested on: China jute (Ab); assay: as above; type: in vivo; design: scale not given here; settings: 21st day after application
How it was run: as §4

[24] = tested on: green foxtail (Se); assay: as above; type: in vivo; design: scale not given here; settings: 21st day after application
How it was run: as §4

[25] = tested on: pale smartweed (Po); assay: as above; type: in vivo; design: scale not given here; settings: 21st day after application
How it was run: as §4

[26] = tested on: bulrush (Sc); assay: Test Example 1: herbicidal effects by paddy field soil treatment; type: in vivo; settings: 100 g of the active ingredient per 10 ares, 21st day after the application, index 0-5 of Table 47;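 note: grade of growth control; 5 = at least 90%; 4 = 70 to 90%; 3 = 50 to 70%; 2 = 30 to 50%; 1 = 10 to 30%; 0 = under 10%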
How it was run: (§6)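 Greenhouse pot test in flooded paddy soil, dosed at 100 g a.i. per 10 ares; effect scored on day 21.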

[27] = tested on: barnyardgrass (Ec); assay: as above; type: in vivo; settings: 100 g of the active ingredient per 10 ares, 21st day after the application, index 0-5 of Table 47
How it was run: as §6

[28] = tested on: monochoria (Mo); assay: as above; type: in vivo; settings: 100 g of the active ingredient per 10 ares, 21st day after the application, index 0-5 of Table 47;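 note: grade of growth control; 5 = at least 90%; 4 = 70 to 90%; 3 = 50 to 70%; 2 = 30 to 50%; 1 = 10 to 30%; 0 = under 10%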
How it was run: as §6

[29] = tested on: cotton (Go); assay: Test Example 4: crop plant selectivity by upland field soil treatment (cotton), phytotoxicity; type: in vivo; design: scale not given here; settings: evaluated 21st day after application
How it was run: as §5

Cc1cc2c(-c3cn(C)c(C(F)(F)F)cc3=O)c(F)cc(Cl)c2o1 [Compound No. 9-1, 5-(7-chloro-5-fluoro-2-methylbenzofuran-4-yl)-1-methyl-2-trifluoromethyl-4(1H)-pyridone]
208 to 211 °C: melting point
0: Phytotoxicity Tr ([15]; dose 1.6 g ai/10a) | Phytotoxicity Go ([29]; dose 1.6 g ai/10 a) | Phytotoxicity Go ([29]; dose 6.3 g ai/10 a)
5: Herbicidal effects Di ([1]; dose 1.6 g ai/10 a) | Herbicidal effects Di ([1]; dose 6.3 g ai/10 a) | Herbicidal effects Ch [2] | Herbicidal effects Am [3] | Herbicidal effects Ec [4] | Herbicidal effects Di [5] | Herbicidal effects Po [6] | Herbicidal effects Ci [7] | Herbicidal effects Di ([8]; dose 1.6 g ai/10a) | Herbicidal effects Di ([8]; dose 6.3 g ai/10a) | Herbicidal effects Ch [9] | Herbicidal effects Am [10] | Herbicidal effects Ec [11] | Herbicidal effects Di [12] | Herbicidal effects Po [13] | Herbicidal effects Ci [14] | Herbicidal effects Ch ([16]; dose 1.6 g ai/10 a) | Herbicidal effects Ch ([16]; dose 6.3 g ai/10 a) | Herbicidal effects Am ([17]; dose 1.6 g ai/10 a) | Herbicidal effects Am ([17]; dose 6.3 g ai/10 a) | Herbicidal effects Ab ([18]; dose 1.6 g ai/10 a) | Herbicidal effects Ab ([18]; dose 6.3 g ai/10 a) | Herbicidal effects Se ([19]; dose 1.6 g ai/10 a) | Herbicidal effects Se ([19]; dose 6.3 g ai/10 a) | Herbicidal effects Po ([20]; dose 6.3 g ai/10 a) | Herbicidal effects Ch ([21]; dose 1.6 g ai/10a) | Herbicidal effects Ch ([21]; dose 6.3 g ai/10a) | Herbicidal effects Am ([22]; dose 1.6 g ai/10a) | Herbicidal effects Am ([22]; dose 6.3 g ai/10a) | Herbicidal effects Ab ([23]; dose 1.6 g ai/10a) | Herbicidal effects Ab ([23]; dose 6.3 g ai/10a) | Herbicidal effects Se ([24]; dose 1.6 g ai/10a) | Herbicidal effects Se ([24]; dose 6.3 g ai/10a) | Herbicidal effects Po ([25]; dose 1.6 g ai/10a) | Herbicidal effects Sc [26] | Herbicidal effects Ec [27] | Herbicidal effects Mo [28]
1: Phytotoxicity Tr ([15]; dose 6.3 g ai/10a)
4: Herbicidal effects Po ([20]; dose 1.6 g ai/10 a) | Herbicidal effects Po ([25]; dose 6.3 g ai/10a)
